Experimental data reported in US8470770B2, “Antimicrobial agents” (priority 2007, dated 2013).
≈ marks a conversion by molar mass, not a printed value. Bridge positions count the residues as written; N and C are the ends. Square brackets hold non-standard residues; d marks the D form. Ends that are not written are not given here. Peptide text beside a SMILES is read from it. 12Ado = NCCCCCCCCCCCC(=O)O

What was measured:
[1] = Hydrophobicity estimation by HPLC reversed-phase C18 elution; assay type: physicochemical; conditions: HPLC-RP C18, linear acetonitrile gradient 1% per minute
Procedure: HPLC chromatograms were performed on C18 columns (Vydak, 250 mm×4.6 or 10 mm) using a linear gradient of acetonitrile in water (1% per minute), both solvents contained 0.1% trifluoroacetic acid. The purified polymers were subjected to mass spectrometry (ZQ Waters) to confirm their composition and stored as a lyophilized powder at −20° C. Prior to being tested, fresh solutions were prepared in water, mixed by vortex, solubilized by ultrasound, centrifuged and then diluted in the appropriate medium.
In order to estimate the hydrophobicity of each polymer, the polymer was eluted with a linear gradient of acetonitrile (1% per minute) on an HPLC reversed-phase C18 column, and the percent of acetonitrile at which the polymer was eluted was used for hydrophobicity estimation (see, “ACN (%)” in Table 3 below).
“ACN (%)” represents the percent of acetonitrile in the HPLC-RP gradient mobile phase at which the polymer was eluted and which corresponds to the estimated hydrophobicity of the polymer (column 4 in Table 3);

[2] = tested on: Enterococcus faecalis (ATCC 29212); assay: microbe, parasite or virus in culture; assay type: cell-based
[3] = tested on: Pseudomonas aeruginosa (ATCC 9027); assay: microbe, parasite or virus in culture; conditions: for MIC P.a.: ATCC 9027
Procedure: (§1) Minimal inhibitory concentrations (MICs) were determined by microdilution susceptibility testing in 96-well plates using inocula of 10^6 bacteria per ml.
(§2) Cell populations were evaluated by optical density measurements at 600 nm and were calibrated against a set of standards. Hundred (100) μl of a bacterial suspension were added to 100 μl of culture medium (control) or to 100 μl of culture medium containing various polymer concentrations in 2-fold serial dilutions.
(§3) Alternatively, MICs were determined using the microbroth dilution assay recommended by the Clinical and Laboratory Standards Institute (CLSI) using two-fold serial dilutions in cation-adjusted Mueller-Hinton broth (CAMHB).
“MIC P.a.” represents the minimal inhibitory concentration of each tested polymer in μM for P. aeruginosa, measured as described hereinabove for the antibacterial activity assay (column 7 in Table 3);

[4] = tested on: methicillin resistant Staphylococcus aureus (CI 15903); assay: microbe, parasite or virus in culture; conditions: for MIC: Staphylococcus aureus, read-out: MIC MR S.a.; for MIC MR S.a.: methicillin resistant (CI 15903)
Procedure: as §1, §2, §3
“MIC MR S.a.” represents the minimal inhibitory concentration of each tested polymer in μM for methicillin-resistant S. aureus, measured as described hereinabove for the antibacterial activity assay of antibiotic-resistant bacteria (column 8 in Table 3);

[5] = tested on: Escherichia coli (ATCC 35218); assay: microbe, parasite or virus in culture; conditions: for MIC E.c.: ATCC 35218
Procedure: as §1, §2, §3
“MIC E.c.” represents the minimal inhibitory concentration of each tested polymer in μM for E. coli, measured as described hereinabove in the antibacterial activity assay (column 5 in Table 3);

[6] = tested on: Bacillus cereus (ATCC 11778)
Procedure: as §1, §2, §3
“MIC B.c.” represents the minimal inhibitory concentration of each tested polymer in μM for Bacillus cereus, measured as described hereinabove for the antibacterial activity assay (column 9 in Table 3); and […]

Row | Molecule | ACN (%) (percent of acetonitrile at which the polymer was eluted; estimated hydrophobicity) [1] | MIC ([2]; ATCC 29212) | MIC P.a. [3] | MIC MR S.a. [4] | MIC E.c. [5] | also measured
1 | NCCCCC1NC(=O)CCCCCCCCCCCNC(=O)C(CCCCN)NC(=O)C(CCCCN)NC(=O)CCCCCCCCCCCNC(=O)C(CCCCN)NC1=O (stereo not drawn) [Polymer 7, Cyclic-(KNC12K)2] (cyclo([12Ado]KK[12Ado]KK); configuration not given here) | 40.7% | 50 µM (≈ 45.4 µg/mL) | 25 µM (≈ 22.7 µg/mL) |  |  | 
2 | CN(C)[C@@H]1C(O)=C(C(N)=O)C(=O)[C@@]2(O)C(O)=C3C(=O)c4c(O)cccc4[C@@](C)(O)[C@H]3C[C@@H]12 [Ref. 7, Tetracycline, reference compound] |  |  |  |  |  | MIC [4]: 0.4 µM (≈ 0.178 µg/mL); MIC ([5]; Escherichia coli, ATCC35218, read-out: MIC E.c.): 1.8 µM (≈ 0.8 µg/mL); MIC ([3]; Pseudomonas aeruginosa, ATCC9027, read-out: MIC P.a.): > 50 µM
3 | CCCCCCCCCCCC(=O)NCCCCC(N)C(=O)NCCCCCCCCCCCC(=O)NCCCCC(N)C(N)=O (stereo not drawn) [Polymer 13, C12K(ε)NC12K(ε)NH2] | 54.4% | 12.5 µM (≈ 8.16 µg/mL) | >50 µM | 12.5 µM (≈ 8.16 µg/mL) | 12.5 µM (≈ 8.16 µg/mL) | 
4 | NCCCCC1NC(=O)CCCCCCCCCCCNC(=O)C(CCCCN)NC(=O)CCCCCCCCCCCNC1=O (stereo not drawn) [Polymer 3, Cyclic-(NC12K)2] | 49.7% | >50 µM | >50 µM |  |  | 
5 | CC(C)C[C@H](NC(=O)CNC(=O)CNC(=O)[C@@H](N)CCCNC(=N)N)C(=O)N[C@H]1CSSC[C@@H](C(=O)N[C@H](C(=O)NCC(=O)N[C@@H](CCCNC(=N)N)C(N)=O)C(C)C)NC(=O)[C@H](C(C)C)NC(=O)[C@@H]2CSSC[C@H](NC(=O)[C@H](Cc3ccc(O)cc3)NC1=O)C(=O)N[C@@H](CCCNC(=N)N)C(=O)NCC(=O)N[C@@H](CCCNC(=N)N)C(=O)N[C@@H](Cc1ccccc1)C(=O)N2 [Ref. 2, IB-367, reference compound] (H-RGGLCYCRGRFCVCVGR-NH2; disulfide 5-14, 7-12) | 45% |  |  |  |  | 
6 | NCCCCC1NC(=O)CCCCCCCCCCCNC(=O)C(CCCCN)NC(=O)C(CCCCN)NC(=O)CCCCCCCCCCCNC1=O (stereo not drawn) [Polymer 9, Cyclic-NC12KKNC12K] (cyclo([12Ado]K[12Ado]KK); configuration not given here) | 42.7% | 25 µM (≈ 19.5 µg/mL) | 50 µM (≈ 39 µg/mL) |  |  | 
7 | GIGKFLKKAKKFGKAFVKILKK-NH2 (C-terminus assumed) [Ref. 1, MSI-78, reference compound] | 44% | 37.5 µM |  |  |  | 
8 | CC[C@H](C)[C@H](NC(=O)[C@H](CCCCN)NC(=O)[C@H](CCC(=O)O)NC(=O)[C@H](CCCCN)NC(=O)[C@H](CO)NC(=O)[C@H](CCCCN)NC(=O)[C@H](CCCNC(=N)N)NC(=O)[C@H](Cc1ccccc1)NC(=O)[C@H](Cc1ccccc1)NC(=O)[C@H](CC(=O)O)NC(=O)CNC(=O)[C@H](CC(C)C)NC(=O)[C@@H](N)CC(C)C)C(=O)NCC(=O)N[C@@H](CCCCN)C(=O)N[C@@H](CCC(=O)O)C(=O)N[C@@H](Cc1ccccc1)C(=O)N[C@@H](CCCCN)C(=O)N[C@@H](CCCNC(=N)N)C(=O)N[C@H](C(=O)N[C@H](C(=O)N[C@@H](CCC(N)=O)C(=O)N[C@@H](CCCNC(=N)N)C(=O)N[C@H](C(=O)N[C@@H](CCCCN)C(=O)N[C@@H](CC(=O)O)C(=O)N[C@@H](Cc1ccccc1)C(=O)N[C@@H](CC(C)C)C(=O)N[C@@H](CCCNC(=N)N)C(=O)N[C@@H](CC(N)=O)C(=O)N[C@@H](CC(C)C)C(=O)N[C@H](C(=O)N1CCC[C@H]1C(=O)N[C@@H](CCCNC(=N)N)C(=O)N[C@H](C(=O)N[C@@H](CCC(=O)O)C(=O)N[C@@H](CO)C(=O)O)[C@@H](C)O)C(C)C)[C@@H](C)CC)C(C)C)[C@@H](C)CC [Ref. 4, LL37, reference compound] | 61% |  |  |  |  | MIC ([2]; Enterococcus faecalis): 37.5 µM (≈ 169 µg/mL)
9 | C[C@@H](O)[C@H]1C(=O)N2C(C(=O)O)=C(SCCN=CN)C[C@H]12 [Ref. 6, Imipenem, reference compound] |  |  |  |  |  | MIC [4]: > 50 µM; MIC ([2]; Enterococcus faecalis, ATCC29212): < 0.03 µM
10 | NCCCC[C@@H]1NC(=O)CCCCCCCCCCCNC(=O)[C@H](CCCCN)NC(=O)[C@H](CCCCN)NC(=O)CCCCCCCCCCCNC(=O)[C@H](CCCCN)NC(=O)[C@H](CCCCN)NC(=O)CCCCCCCCCCCNC1=O [Polymer 10, Cyclic-NC12K(KNC12K)2] (cyclo([12Ado]KK[12Ado]KK[12Ado]K)) | 43.1% | 6.25 µM (≈ 7.71 µg/mL) | 12.5 µM (≈ 15.4 µg/mL) | 12.5 µM (≈ 15.4 µg/mL) | 12.5 µM (≈ 15.4 µg/mL) | 
11 | NCCCC[C@@H]1NC(=O)CCCCCCCCCCCNC(=O)[C@H](CCCCN)NC(=O)[C@H](CCCCN)NC(=O)[C@H](CCCCN)NC(=O)CCCCCCCCCCCNC(=O)[C@H](CCCCN)NC(=O)[C@H](CCCCN)NC1=O [Polymer 12, Cyclic-KNC12KKKNC12KK] (cyclo(K[12Ado]KKK[12Ado]KK)) | 35% | >50 µM | >50 µM | >50 µM | >50 µM | 
12 | NCCCC[C@@H]1NC(=O)CCCCCCCCCCCNC(=O)[C@H](CCCCN)NC(=O)[C@H](CCCCN)NC(=O)[C@H](CCCCN)NC(=O)CCCCCCCCCCCNC(=O)[C@H](CCCCN)NC1=O [Polymer 11, Cyclic-KNC12KKKNC12K] (cyclo(K[12Ado]KKK[12Ado]K)) | 38% | >50 µM | 12.5 µM (≈ 12.9 µg/mL) | >50 µM | >50 µM | 
13 | NCCCCC1NC(=O)CCCCCCCCCCCNC(=O)C(CCCCN)NC(=O)CCCCCCCCCCCNC(=O)C(CCCCN)NC(=O)CCCCCCCCCCCNC(=O)C(CCCCN)NC(=O)CCCCCCCCCCCNC(=O)C(CCCCN)NC(=O)CCCCCCCCCCCNC1=O (stereo not drawn) [Polymer 6, Cyclic-(NC12K)5] | 47.7% |  | 50 µM (≈ 81.4 µg/mL) |  |  | MIC B.c [6]: >50 µM
14 | ALWKTLLKKVLKAAAK-NH2 (C-terminus assumed) [Ref. 3, K4S4(1-16), reference compound] | 47% | 3.1 µM |  |  |  | 
15 | NCCCC[C@@H]1NC(=O)CCCCCCCCCCCNC(=O)[C@H](CCCCN)NC(=O)CCCCCCCCCCCNC(=O)[C@H](CCCCN)NC(=O)CCCCCCCCCCCNC(=O)[C@H](CCCCN)NC(=O)[C@H](CCCCN)NC(=O)CCCCCCCCCCCNC(=O)[C@H](CCCCN)NC(=O)CCCCCCCCCCCNC1=O [Polymer 2, Cyclic-K(NC12K)5] (cyclo(K[12Ado]K[12Ado]K[12Ado]K[12Ado]K[12Ado]K)) | 46.6% | 6.25 µM (≈ 11 µg/mL) | 12.5 µM (≈ 21.9 µg/mL) | 6.25 µM (≈ 11 µg/mL) | 12.5 µM (≈ 21.9 µg/mL) | 
16 | NCCCC[C@@H]1NC(=O)CCCCCCCCCCCNC(=O)[C@H](CCCCN)NC(=O)[C@H](CCCCN)NC(=O)CCCCCCCCCCCNC(=O)[C@H](CCCCN)NC(=O)[C@H](CCCCN)NC(=O)CCCCCCCCCCCNC(=O)[C@H](CCCCN)NC1=O [Polymer 8, Cyclic-(KNC12K)3] (cyclo(K[12Ado]KK[12Ado]KK[12Ado]K)) | 41.7% | 25 µM (≈ 34 µg/mL) | 12.5 µM (≈ 17 µg/mL) | 25 µM (≈ 34 µg/mL) | 25 µM (≈ 34 µg/mL) | 
